Like-named read-outs stand apart in the source and are kept apart here. *1 amine or outer side, *2 acyl side, *3 side chain or, on linkers, in order; H or OH if unused. Where a SMILES comes first, the peptide text is derived from it. Bridges are numbered along the chain shown (N, C = ends). [ ]: non-standard residue; d: D form. The star is where a group is joined. pTerphenylCO(4''-OnC5H11) = CCCCCOc1ccc(-c2ccc(-c3ccc(C(=O)*)cc3)cc2)cc1; Orn(4R-OH,5R-OH) = O=C([C@H](C[C@@H](O)[C@@H](O)N[*:3])N[*:1])[*:2]; hTyr(3S-OH,4S-OH) = N[C@H](C(=O)O)[C@H](O)[C@@H](O)c1ccc(O)cc1; Pro(3S-OH,4S-Me) = C[C@H]1CN[C@H](C(=O)O)[C@H]1O; Hyp = O=C(O)[C@@H]1C[C@@H](O)CN1
What was measured:
[1] = test system: C. albicans R303; experiment: mouse candidiasis infection model, IP administration, kidney fungal burden; assay type: in vivo; details: for log reduction at 0.5 mg/kg / log reduction at 1.5 mg/kg / log reduction at 1 mg/kg / log reduction at 4.5 mg/kg: Candida albicans, R303, ip, 24 h; for overall performance in reducing C. albicans CFUs in the kidneys of the mice: conclusion over all runs
Experimental: The objective of these studies was to evaluate the efficacy of test compounds in the mouse candidiasis infection model. Amounts of test articles are uncorrected.
The strain, C. albicans R303 was transferred from frozen storage onto Sabauroud dextrose agar (SDA) plates and grown for ˜24 hr at 35° C. The inoculum was prepared by transferring colonies from the plate to phosphate buffered saline (PBS) and the concentration adjusted to approximately 10^6 CFU/mL with the aid of a spectrophotometer. The stock was diluted 1:9 to prepare the inoculum. Prior to each run the concentration was verified using the dilution plate count method.
Female CD-1 mice were used in this study. The animals were approximately seven-weeks-old at the start of the study and weighed about 15-30 g.
Mice were made neutropenic with IP injections of cyclophosphamide (150 mg/kg in 10 mL/kg) at 4 and 1 day before inoculation. Each animal was inoculated with the appropriate concentration by injecting 0.1 mL of inoculum into a tail vein. The test compounds were administered IP at 2 hr after infection.
In a typical procedure, the kidneys were collected from four mice in control group 1 (untreated) at 2 hr after infection, and from another four mice in control group 2 (untreated) at 24 hr after infection. Kidneys were removed aseptically from each mouse and were combined in a sterile tube. An aliquot (2 mL) of sterile PBS was added to each tube and the contents homogenized with a tissue homogenizer (Polytron 3100). Serial dilutions of the tissue homogenates were conducted and 0.1 mL aliquots were spread on SDA plates and the plates incubated at 35° C. overnight. The CFU/kidneys were determined from colony counts. Data were analyzed using one-way ANOVA with either the Tukey-Kramer Multiple Comparisons Test or Dunnett Test (GraphPad InStat version 3.06, GraphPad Software, San Diego, Calif.).
The data reported below are the average of four mice. Each run included a separate control and each is tabulated separately.

[2] = Pharmacokinetics in beagle dogs, intravenous; assay type: in vivo; details: for half-life / Vd: dog
Experimental: The test articles were administered to beagle dogs weighing approximately 6-10 kg. Each test article was dosed at 1.4 mg/kg in aqueous saline (with or without 0.5% Tween) over course of 1-10 minutes. […] The dogs were fasted at least 12 hours prior to each dosing and offered food after the 4-hour blood sample was taken; water was withheld for 1 hour prior to and 4 hours following each dosing event. The dose for each animal was based on its most recent body weight. The test article was injected intravenously via a catheter placed in the cephalic vein as a slow bolus.
Blood was collected via the jugular vein. All blood samples (˜1 mL each) were collected into K3EDTA tubes. Following blood collection, the samples were immediately inverted several times and were held on wet ice pending centrifugation. The samples were centrifuged within ˜30 minutes of collection under refrigeration (˜5° C. for ˜10 minutes at ˜2000 g) to obtain plasma. The plasma was frozen immediately on dry ice after separation. The plasma samples were stored at approximately −70° C. until analysis.
Plasma (100 μL) was precipitated with 400 μL of 0.1% formic acid in acetonitrile containing the internal standard (100 ng/mL pneumocandin). The samples were then capped and vortexed for about 30 seconds followed by centrifugation at 14,000 rpm at room temperature for 10 minutes. Following centrifugation 200 μL of supernatant was transferred to plastic autosampler vials containing 200 μL of 0.1% formic acid in water and vortexed. Samples were then analyzed by LCMSMS.
All pharmacokinetic calculations were performed using WinNonlin version 4.1 (Pharsight Corp) by noncompartmental analysis.

[3] = Solubility in aqueous buffers of varying pH; assay type: physicochemical; details: ambient temperature, compound 1 as acetate salt
Experimental: The solubility of compound 1 (acetate salt) was measured in aqueous buffers of varying pH to assess this compound's suitability for formulation in an aqueous carrier for administration by injection (e.g., intravenous or intramuscular injection).

[4] = Solubility in non-aqueous solvents; assay type: physicochemical; details: organic solvent or mixture, compound 1 as acetate salt
Experimental: The solubility of compound 1 (acetate salt) was also measured in non-aqueous solvents to assess this compound's suitability for formulation in non-aqueous carriers.

[5] = Fourth run, IP 0.5 mg/kg, read-out: Difference from 24-h control
[6] = Fourth run, IP 1.5 mg/kg, read-out: Difference from 24-h control
[7] = Fourth run, IP 0.5 mg/kg, kidneys 24 h after infection
[8] = Fourth run, IP 1.5 mg/kg, kidneys 24 h after infection
[9] = 1.4 mg/kg intravenous slow bolus, mean ± SEM, n = 4 beagle dogs
[10] = Second run, IP 0.5 mg/kg, kidneys 24 h after infection
[11] = Second run, IP 1.5 mg/kg, kidneys 24 h after infection
[12] = Second run, IP 4.5 mg/kg, kidneys 24 h after infection

CCCCCOc1ccc(-c2ccc(-c3ccc(C(=O)N[C@H]4C[C@@H](O)C(NCCNCCO)NC(=O)C5[C@@H](O)[C@@H](C)CN5C(=O)C([C@@H](C)O)NC(=O)C([C@H](O)[C@@H](O)c5ccc(O)cc5)NC(=O)C5C[C@@H](O)CC5C(=O)C([C@@H](C)O)NC4=O)cc3)cc2)cc1 (stereo partly drawn) [compound 18]
log reduction at 0.5 mg/kg [1, 5]: 2.56 | log reduction at 1.5 mg/kg [1, 6]: 3.95 | Mean log10 CFU/kidneys (±SEM) [1, 7]: 2.54 ± 0.17 log10 CFU/kidneys | Mean log10 CFU/kidneys (±SEM) [1, 8]: 1.15 ± 0.09 log10 CFU/kidneys | overall performance in reducing C. albicans CFUs in the kidneys of the mice [1]: performed strongly | CI [2, 9]: 0.377 ± 0.018 mL/min/kg | half-life ([2]; plasma, 1.4 mg/kg intravenous slow bolus, mean ± SEM, n = 4 beagle dogs, read-out: T ½ (converted)): 21 ± 1.16 h | Vd ([2]; plasma, 1.4 mg/kg intravenous slow bolus, mean ± SEM, n = 4 beagle dogs, read-out: Vz): 0.687 ± 0.0584 L/kg

CCCCCOc1ccc(-c2ccc(-c3ccc(C(=O)N[C@H]4C[C@@H](O)[C@@H](O)NC(=O)[C@@H]5[C@@H](O)[C@@H](C)CN5C(=O)[C@H]([C@@H](C)O)NC(=O)[C@H]([C@H](O)[C@@H](O)c5ccc(O)cc5)NC(=O)[C@@H]5C[C@@H](O)CN5C(=O)[C@H]([C@@H](C)O)NC4=O)cc3)cc2)cc1 [anidulafungin, reference compound] ({pTerphenylCO(4''-OnC5H11)}-[Orn(4R-OH,5R-OH)]T[Hyp][hTyr(3S-OH,4S-OH)]T[Pro(3S-OH,4S-Me)]; lactam 1-C)
log reduction at 1 mg/kg ([1]; read-out: Difference from 24-h control, Fifth run, IP 1 mg/kg): 2.07 | log reduction at 1 mg/kg ([1]; read-out: Difference from 24-h control, First run, IP 1 mg/kg): 1.83 | log reduction at 0.5 mg/kg ([1]; read-out: Difference from 24-h control, Fourth run, IP 0.5 mg/kg): 1.29 | log reduction at 1.5 mg/kg ([1]; read-out: Difference from 24-h control, Fourth run, IP 1.5 mg/kg): 4.03 | log reduction at 0.5 mg/kg ([1]; read-out: Difference from 24-h control, Second run, IP 0.5 mg/kg): 0.47 | log reduction at 1.5 mg/kg ([1]; read-out: Difference from 24-h control, Second run, IP 1.5 mg/kg): 2.11 | log reduction at 4.5 mg/kg ([1]; read-out: Difference from 24-h control, Second run, IP 4.5 mg/kg): 3.78 | Mean log10 CFU/kidneys (±SEM) ([1]; Fifth run, IP 1 mg/kg, kidneys 24 h after infection): 3.06 ± 0.18 log10 CFU/kidneys | Mean log10 CFU/kidneys (±SD) ([1]; First run, IP 1 mg/kg, neutropenic mice, kidneys 24 h after infection): 3.37 ± 0.72 log10 CFU/kidneys | Mean log10 CFU/kidneys (±SEM) [1, 7]: 3.81 ± 0.19 log10 CFU/kidneys | Mean log10 CFU/kidneys (±SEM) [1, 8]: 1.08 ± 0.08 log10 CFU/kidneys | Mean log10 CFU/kidneys (±SEM) [1, 10]: 4.41 ± 0.12 log10 CFU/kidneys | Mean log10 CFU/kidneys (±SEM) [1, 11]: 2.77 ± 0.20 log10 CFU/kidneys | Mean log10 CFU/kidneys (±SEM) [1, 12]: 1.10 ± 0.38 log10 CFU/kidneys | solubility ([3]; aqueous buffer, pH 3 (0.01M formate buffer)): < 10 µg/mL | solubility ([3]; aqueous buffer, pH 4.6 (0.1M acetate buffer)): < 10 µg/mL | solubility ([3]; aqueous buffer, pH 5.6 (0.1M acetate buffer)): < 10 µg/mL | solubility ([3]; aqueous buffer, pH 7.4 (0.1M phosphate buffer)): < 10 µg/mL | solubility ([3]; aqueous buffer, pH 8.5 (0.01M TRIS buffer)): < 10 µg/mL | solubility ([3]; saline or isotonic, 0.9% saline): < 10 µg/mL | solubility ([3]; simulated gastric fluid, pH 1 (0.1M HCl)): < 10 µg/mL | CI [2, 9]: 0.785 ± 0.032 mL/min/kg | Vz [2, 9]: 0.779 ± 0.0304 L/kg | half-life ([2]; beagle, in vivo, iv, 1.4 mg/kg, 1.4 mg/kg intravenous slow bolus, mean ± SEM, n = 4 beagle dogs, read-out: T ½ (converted)): ~12 h | solubility ([4]; Ethanol (EtOH)): > 17600 µg/mL | solubility ([4]; Glycerol): 1500 µg/mL | solubility ([4]; PEG400): > 26800 µg/mL | solubility ([4]; Propylene glycol(PG)): > 17200 µg/mL

CCCCCOc1ccc(-c2ccc(-c3ccc(C(=O)N[C@H]4C[C@@H](O)C(OCCOCCN)NC(=O)C5[C@@H](O)[C@@H](C)CN5C(=O)C([C@@H](C)O)NC(=O)C([C@H](O)[C@@H](O)c5ccc(O)cc5)NC(=O)C5C[C@@H](O)CN5C(=O)C([C@@H](C)O)NC4=O)cc3)cc2)cc1 (stereo partly drawn) [compound 5]
log reduction at 0.5 mg/kg ([1]; Second run, IP 0.5 mg/kg, read-out: Difference from 24-h control): 1.22 | log reduction at 1.5 mg/kg ([1]; Second run, IP 1.5 mg/kg, read-out: Difference from 24-h control): 4.15 | log reduction at 4.5 mg/kg ([1]; Second run, IP 4.5 mg/kg, read-out: Difference from 24-h control): 4.87 | Mean log10 CFU/kidneys (±SEM) [1, 10]: 3.65 ± 0.10 log10 CFU/kidneys | Mean log10 CFU/kidneys (±SEM) [1, 11]: 0.73 ± 0.42 log10 CFU/kidneys | Mean log10 CFU/kidneys (±SEM) [1, 12]: 0.00 ± 0.00 log10 CFU/kidneys | overall performance in reducing C. albicans CFUs in the kidneys of the mice [1]: performed strongly | Vd ([2]; beagle, in vivo, iv, 1.4 mg/kg): 0.627 ± 0.0139 L/kg | half-life ([2]; beagle, in vivo, iv, 1.4 mg/kg): 33.7 ± 3.28 h

CCCCCOc1ccc(-c2ccc(-c3ccc(C(=O)N[C@H]4C[C@@H](O)C(OCCNCCN)NC(=O)C5[C@@H](O)[C@@H](C)CN5C(=O)C([C@@H](C)O)NC(=O)C([C@H](O)[C@@H](O)c5ccc(O)cc5)NC(=O)C5C[C@@H](O)CN5C(=O)C([C@@H](C)O)NC4=O)cc3)cc2)cc1 (stereo partly drawn) [compound 7]
log reduction at 0.5 mg/kg [1, 5]: 0.78 | log reduction at 1.5 mg/kg [1, 6]: 3.55 | Mean log10 CFU/kidneys (±SEM) [1, 7]: 4.33 ± 0.17 log10 CFU/kidneys | Mean log10 CFU/kidneys (±SEM) [1, 8]: 1.55 ± 0.19 log10 CFU/kidneys | overall performance in reducing C. albicans CFUs in the kidneys of the mice [1]: performed strongly

CCC(C)CC(C)CCCCCCCCC(=O)N[C@H]1C[C@@H](O)C(NCCOCCN)NC(=O)C2[C@@H](O)CCN2C(=O)C([C@H](O)CCN)NC(=O)C([C@H](O)[C@@H](O)c2ccc(O)cc2)NC(=O)C2C[C@@H](O)CC2C(=O)C([C@@H](C)O)NC1=O (stereo partly drawn) [compound 20]
log reduction at 0.5 mg/kg ([1]; Third run, IP 0.5 mg/kg, read-out: Difference from 24-h control): 3.25 | log reduction at 1.5 mg/kg ([1]; Third run, IP 1.5 mg/kg, read-out: Difference from 24-h control): 4.48 | log reduction at 4.5 mg/kg ([1]; Third run, IP 4.5 mg/kg, read-out: Difference from 24-h control): 3.75 | Mean log10 CFU/kidneys (±SEM) ([1]; Third run, IP 0.5 mg/kg, kidneys 24 h after infection): 1.96 ± 0.18 log10 CFU/kidneys | Mean log10 CFU/kidneys (±SEM) ([1]; Third run, IP 1.5 mg/kg, kidneys 24 h after infection): 0.73 ± 0.42 log10 CFU/kidneys | Mean log10 CFU/kidneys (±SEM) ([1]; Third run, IP 4.5 mg/kg, kidneys 24 h after infection): 1.45 ± 0.09 log10 CFU/kidneys | overall performance in reducing C. albicans CFUs in the kidneys of the mice [1]: performed strongly
